Laboratory results published in US11124553B2, “TDP-43 mitochondrial localization inhibitor for the treatment of neurogenerative disease” (Case Western Reserve University, priority 2016, dated 2021).
Read-outs that look alike come from different tables or passages of the source. Ends that are not written are not given here.

Assays:
cells = conditions: data not shown
[1] = 1.5 mg/kg/day s.c. infusion for 6 weeks; data not shown
[2] = continuous subcutaneous infusion
Method: Mice surgery/procedures were performed according to the NIH guidelines and were approved by the Institutional Animal Care and Use Committee (IACUC) at Case Western Reserve University. C57BL/6 non-transgenic wild type mice (NTG mice), Prnp-TARDBP mice (TDP-43 WT Tg mice) and Prnp-TARDBP*A315T mice (TDP-43 A315T Tg mice) were purchased from the Jackson Laboratory (Bar Harbor, Me.). Mice were infused subcutaneously with mini-osmotic pumps (Alzet Model 2004, Cupertino, Calif.; flow rate of 0.25 μl/hour). One day before implantation, mini-osmotic pumps were filled with 200 μl PBS containing cPM or PM1 peptides (0.5 mg/kg/Day) followed by pump incubation in PBS at 37 overnight according to the manufacturer's instructions. For surgery, male mice were anesthetized with avertin. A small incision was made at the back of mouse and mini-osmotic pump were implanted subcutaneously. After treatment, mice were deeply anesthetized with avertin and transcardially perfused with cold PBS and spinal cord and brain tissues were collected followed by fractionation, western blot or immunostaining.

Sequence | toxic effect on cells (cells) | reaching the central nervous system [1] | detection in mitochondrial compartments [2] | reaching the central nervous system [2]
YGRKKRRQRRRSKGFGFVRF [PM3] | mild toxic effect | – | – | –
YGRKKRRQRRRAQFPGACGL [PM1] | – | reached the central nervous system | detected in all mitochondrial compartments | reached the central nervous system
